The nature of data set [1]: Metabolic stability in human liver microsomes assessed as parent compound remaining at 10 uM measured after 10 mins in presence of NADPH and GSH by UPLC-MS/MS analysis. The data set is classed as ADME, Microsome. Particulars: read-out: Stability; call rule not given here.
A short description of data set [2]: Metabolic stability in rat liver microsomes assessed as parent compound remaining at 10 uM measured after 10 mins in presence of NADPH and GSH by UPLC-MS/MS analysis. Particulars: read-out: Stability. It is filed as ADME, Microsome. (Liver microsomes are a subcellular fraction often used to study metabolism.)
Data set [3] is described as follows: Glutathione reactivity in human liver microsomes assessed as GSH-adduct formation at 10 uM incubated for 60 mins in presence of NADPH and GSH by HPLC-MS analysis. It is filed as ADME, Microsome. Particulars: 1 h.
The target of data set [4] is T1, hERG (KCNH2) (Homo sapiens, UniProt Q12809). The data set can be described thus: Inhibition of human ERG expressed in HEK293 cells at 1 uM incubated for 2 to 5 mins by Manual patch clamp assay relative to control. The data set is classed as toxicity, cell-based. Particulars: HEK293 cells expressing hERG, time 2-5 min. In general terms: In patch-clamp work, channel activity is measured electrically.

In data set [5] the target is T2, ATP-sensitive inward rectifier potassium channel 1 (Homo sapiens, UniProt P48048).
T2 sequence (P48048 whole entry): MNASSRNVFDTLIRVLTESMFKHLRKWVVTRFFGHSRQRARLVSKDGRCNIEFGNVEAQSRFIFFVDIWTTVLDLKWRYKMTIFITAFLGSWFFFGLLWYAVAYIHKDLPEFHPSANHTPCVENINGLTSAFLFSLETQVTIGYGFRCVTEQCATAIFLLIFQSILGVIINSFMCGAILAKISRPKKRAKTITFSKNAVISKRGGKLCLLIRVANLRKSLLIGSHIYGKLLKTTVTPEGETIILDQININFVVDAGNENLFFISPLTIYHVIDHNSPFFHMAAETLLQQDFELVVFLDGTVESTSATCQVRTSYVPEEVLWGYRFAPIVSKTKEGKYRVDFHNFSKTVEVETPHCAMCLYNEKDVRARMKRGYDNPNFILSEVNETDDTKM
Description: Inhibition of human ROMK expressed in T-REX-CHO cells incubated for 30 mins by thallium flux assay

In data set [6] the target is T1, hERG (KCNH2). The data set can be described thus: Inhibition of human ERG expressed in HEK293 cells at 10 uM incubated for 2 to 5 mins by Manual patch clamp assay relative to control. To be noted: HEK293 cells expressing hERG, time 2-5 min. The data set is classed as toxicity, cell-based.
Data set [7] concerns the target T1, hERG (KCNH2). The data set can be described thus: Inhibition of human ERG expressed in HEK293 cells at 3 uM incubated for 2 to 5 mins by Manual patch clamp assay relative to control. The data set is classed as toxicity, cell-based. To be noted: HEK293 cells expressing hERG, time 2-5 min.
In data set [8] the target is T2, ATP-sensitive inward rectifier potassium channel 1. This is another data set of the same source.
Description: Inhibition of human ROMK expressed in T-REX-CHO cells incubated for 3 to 8 mins by whole cell manual patch clamp assay
Data set [9] has as its target Voltage-gated inwardly rectifying potassium channel KCNH2 (Homo sapiens, UniProt Q12809). The data set can be described thus: Inhibition of human ERG expressed in HEK293 cells incubated for 2 to 5 mins by Manual patch clamp assay. It is filed as toxicity, cell-based.
For data set [10], the species on record is Homo sapiens. The data set can be described thus: Selectivity ratio of IC50 for inhibition of ERG expressed in HEK293 cells to IC50 for inhibition of human ROMK expressed in T-REX-CHO cells incubated for 30 mins by thallium flux assay. The data set is classed as cell-based.
The species named for data set [11] is Homo sapiens. The data set can be described thus: Selectivity ratio of IC50 for inhibition of ERG expressed in HEK293 cells to IC50 for inhibition of human ROMK expressed in T-REX-CHO cells incubated for 3 to 8 mins by whole cell manual patch clamp assay. It is filed as cell-based.

Broadly, the inhibition is the change of the read-out against control, counted positive when it falls. Lower therefore signals little suppression. Broadly, the IC50 is the midpoint of a concentration-inhibition curve. Low readings indicate higher potency, high ones lower potency.

T1 sequence (Q12809 whole entry): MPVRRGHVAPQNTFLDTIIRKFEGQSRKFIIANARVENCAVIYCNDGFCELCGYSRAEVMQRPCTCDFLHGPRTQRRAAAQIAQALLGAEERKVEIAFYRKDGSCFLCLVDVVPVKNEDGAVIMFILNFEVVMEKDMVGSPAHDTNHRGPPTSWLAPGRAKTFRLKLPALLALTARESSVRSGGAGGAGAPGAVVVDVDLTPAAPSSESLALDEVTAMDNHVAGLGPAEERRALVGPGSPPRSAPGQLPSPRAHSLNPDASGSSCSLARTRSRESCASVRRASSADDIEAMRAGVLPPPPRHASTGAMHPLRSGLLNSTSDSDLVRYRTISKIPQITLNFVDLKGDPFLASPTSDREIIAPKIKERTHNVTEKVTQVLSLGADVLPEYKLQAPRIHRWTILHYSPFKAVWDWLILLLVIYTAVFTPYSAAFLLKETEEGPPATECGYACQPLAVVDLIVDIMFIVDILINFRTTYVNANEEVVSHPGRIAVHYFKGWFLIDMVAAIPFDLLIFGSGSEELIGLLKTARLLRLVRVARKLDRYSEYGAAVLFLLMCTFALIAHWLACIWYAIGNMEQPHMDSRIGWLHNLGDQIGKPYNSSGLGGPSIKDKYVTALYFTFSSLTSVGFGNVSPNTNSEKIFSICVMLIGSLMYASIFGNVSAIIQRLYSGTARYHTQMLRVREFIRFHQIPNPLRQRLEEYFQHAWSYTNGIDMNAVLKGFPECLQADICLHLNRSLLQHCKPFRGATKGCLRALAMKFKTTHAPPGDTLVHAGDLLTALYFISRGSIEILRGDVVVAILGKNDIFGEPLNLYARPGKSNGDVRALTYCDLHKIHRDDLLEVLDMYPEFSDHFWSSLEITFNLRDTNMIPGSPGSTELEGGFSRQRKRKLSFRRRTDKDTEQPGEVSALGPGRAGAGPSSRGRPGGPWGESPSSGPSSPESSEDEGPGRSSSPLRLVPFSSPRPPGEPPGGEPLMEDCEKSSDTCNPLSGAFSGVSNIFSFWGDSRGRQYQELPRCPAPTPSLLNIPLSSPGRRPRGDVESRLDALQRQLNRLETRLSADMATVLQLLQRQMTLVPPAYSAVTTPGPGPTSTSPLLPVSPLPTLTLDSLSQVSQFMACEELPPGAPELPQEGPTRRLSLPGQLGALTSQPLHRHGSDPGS
Chain of Voltage-gated inwardly rectifying potassium channel KCNH2 (Q12809 whole entry): as above

For `Cc1cc(-n2cc(CN3C[C@H](CO)N[C@H](c4ccc5c(c4C)COC5=O)C3)cn2)ncc1C#N`, the remaining at 10 min, 10 µM turned out to be 76% in data set [1] and 93% in data set [2]. Moreover, the Activity result in [3] is reported as “Not Active”.

The compound `Cc1cc(-n2cc(CN3CCCC(c4ccc5c(c4C)COC5=O)C3)cn2)ncc1C#N` (stereo not given) came in with an inhibition at 1 µM in data set [4] of 75%. Also, the results for the remaining at 10 min, 10 µM in data set [1] and in [2] were 59% and 29%, respectively.

In data set [4], `N#Cc1ccc(-c2ncc3c(n2)CCN(C[C@H](O)c2ccc4c(c2)COC4=O)C3)cc1F` came in with an inhibition at 1 µM of 50%. Moreover, the remaining at 10 min, 10 µM came out at 73% in data set [1] and 44% in data set [2]. In data set [5], this compound returned a half-maximal inhibitory concentration (IC50) of 0.074 µM.

In turn, `Cc1cc(-c2ccc(CNC[C@H](O)c3ccc4c(c3C)COC4=O)cn2)ncc1C#N` displayed an inhibition at 10 µM in data set [6] of 71%. The remaining at 10 min, 10 µM in data set [1] was determined as 90%; in [2], 46%.

Consider `Cc1cc(-n2cc(CN3CC(O)CC(c4ccc5c(c4C)COC5=O)C3)cn2)ncc1C#N` (stereo not given), for which the remaining at 10 min, 10 µM worked out at 54% in [1] and 50% in data set [2]. Further, the inhibition at 3 µM in data set [7] was 76%. In addition, in data set [3], the outcome was Active.

As to `Cc1cc(-n2ncc(CNC[C@H](O)c3ccc4c(c3C)COC4=O)n2)ncc1C#N`, in data set [6], the inhibition at 10 µM was determined as 87%. Besides, the remaining at 10 min, 10 µM was 92% in [1] and 94% in data set [2]. The IC50 was found to be 0.052 µM in [5] and 0.0081 µM in data set [8].

In the case of `Cc1cc(-n2cc(CNC[C@H](O)c3ccc4c(c3C)COC4=O)cn2)ncc1C#N`, the remaining at 10 min, 10 µM was 86% in data set [1] and 72% in data set [2].

`Cc1c([C@@H](O)CNCc2ccc(-c3ccc(C#N)c(F)c3)nc2)ccc2c1COC2=O` registered an inhibition at 1 µM in [4] of 66%. Also, the values for the remaining at 10 min, 10 µM in data set [1] and in data set [2] were 75% and 51%, respectively.

In data set [4], `Cc1cc(-n2cc(CN3CCNC(c4ccc5c(c4C)COC5=O)C3C)cn2)ncc1C#N` (stereo not given) registered an inhibition at 1 µM of 45%. For the same compound, the remaining at 10 min, 10 µM in data set [1] stood at 46%; in data set [2], 62%. Moreover, in data set [3], the result was Active.

As to `N#Cc1ccc(-c2ccc3c(n2)CCN(C[C@H](O)c2ccc4c(c2)COC4=O)C3)cc1F`, the inhibition at 1 µM in [4] is 80%. Moreover, the IC50 in data set [5] was 0.061 µM; in [8] it was 0.037 µM.

Compound `Cc1cc(-n2cnc(CNC[C@H](O)c3ccc4c(c3C)COC4=O)c2)ncc1C#N` had an inhibition at 10 µM in data set [6] of 72%. Besides, the remaining at 10 min, 10 µM in data set [1] came to 97%; in data set [2], 67%. For the same compound, in data set [5], the IC50 was determined as 0.046 µM.

On to `N#Cc1ccc(-c2ccc3c(c2)CCN(CCc2ccc4c(c2)COC4=O)C3)cc1F`, for which the IC50 is 0.01 µM in [9], 0.059 µM in data set [5] and 0.013 µM in data set [8]. Further, the remaining at 10 min, 10 µM in data set [1] is 72%; in data set [2] it was 8%.

Consider `Cc1cc(-c2ncc(CNC[C@H](O)c3ccc4c(c3C)COC4=O)s2)ncc1C#N`, for which the inhibition at 10 µM in [6] was determined as 72%. Besides, the remaining at 10 min, 10 µM in data set [1] was 85%; in [2], 33%.

Compound `Cc1c([C@@H](O)CN2CCc3nc(-c4ccc(C#N)c(F)c4)ncc3C2)ccc2c1COC2=O` yielded an inhibition at 1 µM in [4] of 71%. The figures for the IC50 in data set [9], in data set [5] and in [8] were 0.41 µM, 0.0088 µM and 0.0094 µM, respectively. Further, the results for the remaining at 10 min, 10 µM in data set [1] and in data set [2] were 62% and 96%, respectively. Also, the Ratio IC50 in data set [10] and in data set [11] was 40 in each case.

Take `Cc1cc(-n2cc(CN3CCN[C@H](c4ccc5c(c4C)COC5=O)C3)cn2)ncc1C#N`: the remaining at 10 min, 10 µM in [1] was determined as 96%; in data set [2], 90%.

With `Cc1cc(-n2cc(CN3CC(c4ccc5c(c4C)COC5=O)NCC3C)cn2)ncc1C#N` (stereo not given), the result in data set [3] was Active.

Take `Cc1cc(-n2ccc(CNC[C@H](O)c3ccc4c(c3C)COC4=O)n2)ncc1C#N`: testing at 10 µM in [6] gave an inhibition of 59%. The remaining at 10 min, 10 µM in data set [1] was found to be 12%; in data set [2] it was 1%. This compound showed an IC50 in data set [5] of 0.43 µM.

Compound `Cc1cc(-n2cc(CN3CC(O)C(c4ccc5c(c4C)COC5=O)C3)cn2)ncc1C#N` (stereo not given) returned an inhibition at 1 µM in [4] of 58%. The remaining at 10 min, 10 µM in data set [1] was determined as 100%; in data set [2] it was 84%. In addition, the IC50 in data set [5] was 0.03 µM.

`Cc1cc(-n2cc(CN3CC[C@@H](O)[C@H](c4ccc5c(c4C)COC5=O)C3)cn2)ncc1C#N`: the remaining at 10 min, 10 µM in [1] amounted to 64%; in data set [2], 75%. The Activity entry in [3] is “Not Active”.

`COc1c(CNC[C@H](O)c2ccc3c(c2C)COC3=O)cnn1-c1cc(C)c(C#N)cn1` displayed an inhibition at 1 µM in data set [4] of 91%.

For the compound `N#Cc1ccc(-c2ccc3c(c2)CCN(C[C@H](O)c2ccc4c(c2)COC4=O)C3)cc1F`, in data set [4], the inhibition at 1 µM was 97%. Further, it took 0.032 µM to reach half-maximal inhibition in data set [5] (IC50).

`Cc1cc(-n2cc(CNC[C@H](O)c3ccc4c(c3C)COC4=O)c(C(F)F)n2)ncc1C#N` displayed an inhibition at 10 µM in data set [6] of 77%. The figures for the remaining at 10 min, 10 µM in [1] and in data set [2] were 18% and 1%, respectively.

For `Cc1cc(-n2cc(CN3CC(=O)N[C@H](c4ccc5c(c4C)COC5=O)C3)cn2)ncc1C#N`, at 10 µM the inhibition in [6] was 42%. For the same compound, the remaining at 10 min, 10 µM in [1] is 64%; in data set [2], 67%.

As to `Cc1cc(-n2ncc(CN3C[C@@H](c4ccc5c(c4C)COC5=O)NC(C)(C)C3)n2)ncc1C#N`, the remaining at 10 min, 10 µM was 62% in data set [1] and 100% in data set [2].

As for `Cc1c([C@@H](O)CN(C)Cc2ccc(-c3ccc(C#N)c(F)c3)nc2)ccc2c1COC2=O`, in data set [4], the inhibition at 1 µM stood at 68%. The remaining at 10 min, 10 µM came to 40% in data set [1] and 7% in data set [2].

The compound `Cc1cc(-n2cc(CN3CCO[C@H](c4ccc5c(c4C)COC5=O)C3)cn2)ncc1C#N` registered an inhibition at 1 µM in data set [4] of 26%. The remaining at 10 min, 10 µM in [1] was determined as 49%; in [2], 60%.

Turning to `Cc1cc(-n2cc(CN3C[C@@H](c4ccc5c(c4C)COC5=O)OC(C)(C)C3)cn2)ncc1C#N`, at 1 µM the inhibition in [4] was 13%. In addition, the values for the remaining at 10 min, 10 µM in data set [1] and in data set [2] were 44% and 56%, respectively.

Turning to `Cc1cc(-n2ncc(CN3CCN[C@H](c4ccc5c(c4C)COC5=O)C3)n2)ncc1C#N`, the remaining at 10 min, 10 µM in data set [1] and in [2] was 100% throughout.
